From patent publication US20260373183A1, “ANTIBIOTIC-RESISTANT ARTIFICIAL NUCLEOSIDE, COMPOSITION AND METHOD” (priority 2022, published 2026)

Key:
[1] = tested on: Pseudomonas aeruginosa strains (VIM-2, SPM-1, IMP-1, OXA-50, ATCC 27853, PA01); experiment: checkerboard MIC experiments, 5-NIdR combined with aztreonam/avibactam; format: cell-based
Experimental: 5-NIdR alone was not active, displaying individual MICs>512 μg/ml against these strains.

bacterial persisters = experiment: fluorescence and SEM of bacterial persisters treated with aztreonam/avibactam with or without 5-NIdR (FIG. 5); format: cell-based
Text: First, the artificial nucleoside inhibits TLS activity in response to ROS generated by β-lactams, and this serves to enhance the cytotoxicity of this class of antibiotics. […] These two features represent a novel approach to attack drug-resistant bacteria.

O=[N+]([O-])c1ccc2c(ccn2[C@H]2C[C@H](O)[C@@H](CO)O2)c1 [5-NIdR, 5-nitro-indolyl-2′-deoxynucleoside]
activity of 5-NIdR alone ([1]; 5-NIdR alone, against these strains): not active
fold reduction in the MICs for aztreonam/avibactam ([1]; 5-NIdR combined with aztreonam/avibactam, 5-NIdR concentrations as low as 0.5 μg/ml, all strains listed): > 10 -fold
MIC ([1]; Pseudomonas aeruginosa, ATCC27853, read-out: minimal inhibitory concentrations (MICs)): > 512 µg/mL
lowest 5-NIdR concentration required to achieve a >10-fold reduction in the MICs for aztreonam/avibactam ([1]; combined with β-lactams (aztreonam/avibactam), all Pseudomonas aeruginosa strains listed): 0.5 μg/ml
cell-killing effects in checkerboard analysis ([1]; combining 5-NIdR with aztreonam/avibactam in drug-resistant bacteria (FIG. 3A-F)): synergistic cell-killing effects
inhibitory activity in checkerboard experiments ([1]; variable concentrations of 5-NIdR combined with variable concentrations of aztreonam/avibactam): excellent inhibitory activity
influence on formation of persisters induced by antibiotic treatment (bacterial persisters; 5-NIdR added to aztreonam/avibactam, panel d): does not appear to influence formation of persisters
viability of filamentous persisters (bacterial persisters; 5-NIdR combined with aztreonam/avibactam): adversely affects the viability of filamentous persisters
morphology of persisters (fluorescence and SEM) (bacterial persisters; 5-NIdR combined with aztreonam/avibactam, panels d, e): formation of “ghost” apoptotic saccules which represent non-viable persisters that do not undergo reversion
